Laboratory results published in PMC6131351, “Pharmacological difference between degrader and inhibitor against oncogenic BCR-ABL kinase” (Scientific Reports, 2018).

How the values were obtained:
BCR-ABL protein = biological target: T1, BCR-ABL protein (Homo sapiens, UniProt P00519+P11274); assay: Washout experiment, BCR-ABL protein level by western blot in K562 cells; assay type: cell-based; details: K562, 50 times IC50 for 12 h, BCR-ABL/β-tubulin
T1 construct: examined for their activity to degrade BCR-ABL in K562 cells for 6 h; BCR (fusion partner, P11274, N-terminal part); endogenous in cells; host or cells: K562
T1 sequence (P11274+P00519 fused): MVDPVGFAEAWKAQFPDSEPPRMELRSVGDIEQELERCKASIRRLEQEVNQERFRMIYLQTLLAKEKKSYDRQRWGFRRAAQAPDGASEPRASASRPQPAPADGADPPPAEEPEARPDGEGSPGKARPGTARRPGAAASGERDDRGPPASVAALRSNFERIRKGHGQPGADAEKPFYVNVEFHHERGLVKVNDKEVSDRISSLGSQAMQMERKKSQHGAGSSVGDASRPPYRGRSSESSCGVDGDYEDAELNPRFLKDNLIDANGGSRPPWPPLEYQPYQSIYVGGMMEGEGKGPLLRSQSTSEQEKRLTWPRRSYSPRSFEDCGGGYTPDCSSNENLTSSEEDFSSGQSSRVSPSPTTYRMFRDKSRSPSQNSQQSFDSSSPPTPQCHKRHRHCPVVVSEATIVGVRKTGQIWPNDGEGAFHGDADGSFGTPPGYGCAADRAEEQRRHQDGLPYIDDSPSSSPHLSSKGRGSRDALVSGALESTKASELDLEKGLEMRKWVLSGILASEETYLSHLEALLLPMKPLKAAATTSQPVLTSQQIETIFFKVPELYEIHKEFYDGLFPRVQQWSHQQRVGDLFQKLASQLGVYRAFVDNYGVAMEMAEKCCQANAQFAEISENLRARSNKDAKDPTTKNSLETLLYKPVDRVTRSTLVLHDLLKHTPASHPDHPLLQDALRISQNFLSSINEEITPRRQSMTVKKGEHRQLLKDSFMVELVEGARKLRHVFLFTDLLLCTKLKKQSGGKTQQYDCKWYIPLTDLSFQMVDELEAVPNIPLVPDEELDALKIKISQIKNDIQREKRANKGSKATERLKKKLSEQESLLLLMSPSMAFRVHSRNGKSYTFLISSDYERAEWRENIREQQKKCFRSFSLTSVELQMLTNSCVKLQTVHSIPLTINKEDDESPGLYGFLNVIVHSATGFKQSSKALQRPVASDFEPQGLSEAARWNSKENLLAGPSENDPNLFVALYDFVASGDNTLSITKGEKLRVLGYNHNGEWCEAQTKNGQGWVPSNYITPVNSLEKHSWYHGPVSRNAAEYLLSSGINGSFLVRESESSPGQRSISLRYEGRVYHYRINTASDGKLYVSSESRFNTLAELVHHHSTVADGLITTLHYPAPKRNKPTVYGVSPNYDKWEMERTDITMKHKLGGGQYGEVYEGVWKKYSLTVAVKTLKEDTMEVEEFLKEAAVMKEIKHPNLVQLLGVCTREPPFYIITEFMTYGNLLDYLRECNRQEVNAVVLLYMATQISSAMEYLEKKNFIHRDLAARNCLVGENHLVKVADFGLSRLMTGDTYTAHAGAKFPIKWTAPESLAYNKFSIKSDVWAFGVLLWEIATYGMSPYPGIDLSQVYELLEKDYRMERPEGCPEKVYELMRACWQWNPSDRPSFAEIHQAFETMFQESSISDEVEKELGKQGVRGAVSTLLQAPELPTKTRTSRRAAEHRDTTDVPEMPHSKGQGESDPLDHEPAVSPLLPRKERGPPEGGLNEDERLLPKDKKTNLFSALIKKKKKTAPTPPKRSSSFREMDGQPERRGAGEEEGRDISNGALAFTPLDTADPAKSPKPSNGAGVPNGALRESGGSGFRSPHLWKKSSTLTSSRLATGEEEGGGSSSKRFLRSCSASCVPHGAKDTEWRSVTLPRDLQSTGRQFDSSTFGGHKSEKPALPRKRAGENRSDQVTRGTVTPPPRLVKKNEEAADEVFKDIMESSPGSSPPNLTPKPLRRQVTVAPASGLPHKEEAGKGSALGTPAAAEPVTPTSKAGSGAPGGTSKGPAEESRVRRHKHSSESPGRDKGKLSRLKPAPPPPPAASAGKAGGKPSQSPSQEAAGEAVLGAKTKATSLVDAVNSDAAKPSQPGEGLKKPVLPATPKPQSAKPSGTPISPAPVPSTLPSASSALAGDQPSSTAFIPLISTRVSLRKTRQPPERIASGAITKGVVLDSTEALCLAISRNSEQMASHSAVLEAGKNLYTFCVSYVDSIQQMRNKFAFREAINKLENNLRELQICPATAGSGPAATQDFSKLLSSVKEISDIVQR
Protocol: (§1) Cells were collected and lysed in a lysis buffer (0.5% Triton X-100, 0.01 M Tris-HCl (pH 7.5), 0.15 M NaCl, Complete Mini protease inhibitor cocktail (Roche Applied Science, Indianapolis, IL, USA) and PhosStop phosphatase inhibitor cocktail (Roche Applied Science)). Protein concentrations were measured by the BCA method (Thermo Fisher Scientific) and an equal amount of protein lysate was separated by SDS-PAGE, transferred to polyvinylidene difluoride membranes (Merck Millipore) and analyzed by western blot using an appropriate antibody. The immunoreactive proteins were visualized using Clarity Western ECL substrate (Bio-Rad, Hercules, CA, USA) and their light emission was quantified with a LAS-3000 lumino-image analyzer (Fuji, Tokyo, Japan).
(§2) Cells were seeded at a concentration of 2 × 10^6 cells per 10-cm tissue culture dish and treated with the indicated compounds for the indicated times. Then, the cells were washed three times to remove the compounds, and incubated in drug-free medium for the indicated times.

[1] = system: caspase 3 activation and PARP cleavage; assay: Caspase activation and PARP cleavage after drug removal in K562 cells; assay type: cell-based, Human; details: K562, 50 times IC50 for 12 h, drug removal for 24 h
Protocol: as §1, with “Japan). The following antibodies were used: anti-cAbl rabbit polyclonal antibody (pAb) (#2862), anti-XIAP rabbit pAb (#2042), anti-phospho-cAbl rabbit pAb (#3009), anti-STAT5 rabbit pAb (#9363), anti-phospho-STAT5 rabbit pAb (#9359), anti-CrkL mouse monoclonal antibody (mAb) (#3182) and anti-phospho-CrkL rabbit pAb (#3181), anti-PARP rabbit pAb (#9532), and anti-cleaved Caspase 3 rabbit pAb (#9664) (Cell Signaling Technology, Danvers, MA, USA); anti-β-tubulin (ab6046) rabbit pAb (Abcam, Cambridge, UK) and anti-GAPDH rabbit pAb (sc-25778 HRP) (Santa Cruz, Dallas, TX, USA); anti-cIAP1 goat pAb (AF8181) (R&D systems).” for “Japan).”
as §2

cIAP2 (BIR3) = biological target: T2, cIAP2 (BIR3) (Homo sapiens, UniProt Q13489); assay: TR-FRET IAP/Smac peptide interaction assay, cIAP2; details: FITC-Smac probe, read-out: Binding affinity IC50 cIAP2
T2 construct: cIAP2 (BIR3, Gln238-Ser349) proteins were expressed in E. coli; made in house; host or cells: E. coli
T2 sequence (Q13489 238-349): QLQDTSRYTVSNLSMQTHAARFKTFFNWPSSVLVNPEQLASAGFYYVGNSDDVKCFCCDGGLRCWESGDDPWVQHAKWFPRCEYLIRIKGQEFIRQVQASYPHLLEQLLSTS
Protocol: The TR-FRET assay was carried out using 384-well white flat-bottom plates (Greiner Bio-One) and the signal was measured using an EnVision Multilabel Plate Reader (PerkinElmer, Waltham, MA, USA). The solution in each well was excited with a laser (λ = 337 nm) reflected by a dichroic mirror (D400/D505 (Perkin Elmer) and fluorescence from terbium (Tb) and BODIPY or FITC was detected through two emission filters (CFP 486 (Perkin Elmer) for Tb and Emission 515 (Perkin Elmer) for BODIPY and FITC). The assay buffer used in this study was composed of 50 mM HEPES (pH 7.2–7.5), 10 mM MgCl2, 1 mM EGTA, 0.1 mM DTT and 0.01% (v/v) Brij^(R) 35. All assays were carried out at room temperature in triplicate or quadruplicate formats.
(§3) The half maximal inhibitory concentration (IC50) of test compounds was calculated by fitting the data with the logistic equation using GraphPad Prism 5 (GraphPad Software, Inc., La Jolla, CA, USA) or XLfit (IDBS, Guildford, UK).
His-IAP proteins (XIAP, cIAP1 or cIAP2), FITC-Smac, Tb-SA and the biotinylated anti-His antibody (Life Technologies) were mixed in the assay buffer and incubated for over 1 h at room temperature before addition to the assay plate. […] After 1 h incubation at room temperature, the TR-FRET signal was measured using the EnVision Multilabel Plate Reader. […]

Jurkat cells = assay: WST cell growth inhibition, Jurkat (BCR-ABL negative); assay type: cell-based; details: Homo sapiens, 48 h, WST assay, means ± SD (n = 3)
ABL1 = biological target: T3, ABL1 (Homo sapiens, UniProt P00519); assay: TR-FRET binding assay, ABL1 (BODIPY-dasatinib probe); details: concentration required to inhibit the probe binding to ABL by 50%, read-out: Binding affinity IC50 ABL
T3 construct: the His-tagged ABL1 protein (full length, P3049) were from Life Technologies; purchased Life Technologies P3049
T3 sequence (P00519 whole entry): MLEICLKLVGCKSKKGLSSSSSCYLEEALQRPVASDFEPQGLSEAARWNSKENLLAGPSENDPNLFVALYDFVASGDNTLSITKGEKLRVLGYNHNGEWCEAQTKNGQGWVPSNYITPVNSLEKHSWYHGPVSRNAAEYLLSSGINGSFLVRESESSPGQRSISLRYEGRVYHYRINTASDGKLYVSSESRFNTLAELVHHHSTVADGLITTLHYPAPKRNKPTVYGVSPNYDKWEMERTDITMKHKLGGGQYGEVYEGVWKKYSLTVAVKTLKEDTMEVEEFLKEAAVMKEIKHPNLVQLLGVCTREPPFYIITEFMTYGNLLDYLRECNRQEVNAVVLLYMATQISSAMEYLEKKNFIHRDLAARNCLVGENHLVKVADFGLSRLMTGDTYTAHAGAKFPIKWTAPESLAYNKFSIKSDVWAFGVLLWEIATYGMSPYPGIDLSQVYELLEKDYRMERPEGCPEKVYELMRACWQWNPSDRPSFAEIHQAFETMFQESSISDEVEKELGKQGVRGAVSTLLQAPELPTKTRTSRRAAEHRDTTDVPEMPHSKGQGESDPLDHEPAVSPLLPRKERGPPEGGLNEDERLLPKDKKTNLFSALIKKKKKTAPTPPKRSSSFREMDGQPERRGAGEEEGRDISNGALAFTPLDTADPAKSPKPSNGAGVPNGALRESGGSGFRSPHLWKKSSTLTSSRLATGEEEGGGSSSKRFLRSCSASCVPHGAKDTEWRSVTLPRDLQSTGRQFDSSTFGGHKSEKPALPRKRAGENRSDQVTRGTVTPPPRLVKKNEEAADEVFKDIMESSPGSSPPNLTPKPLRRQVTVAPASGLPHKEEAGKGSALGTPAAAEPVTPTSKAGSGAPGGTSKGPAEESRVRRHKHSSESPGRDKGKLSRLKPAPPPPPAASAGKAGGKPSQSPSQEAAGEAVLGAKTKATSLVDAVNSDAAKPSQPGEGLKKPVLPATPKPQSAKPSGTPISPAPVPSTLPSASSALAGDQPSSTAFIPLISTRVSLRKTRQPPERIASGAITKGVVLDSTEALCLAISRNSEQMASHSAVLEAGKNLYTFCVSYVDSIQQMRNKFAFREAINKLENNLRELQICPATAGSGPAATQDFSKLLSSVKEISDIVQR
Protocol: The TR-FRET assay was carried out using 384-well white flat-bottom plates (Greiner Bio-One) and the signal was measured using an EnVision Multilabel Plate Reader (PerkinElmer, Waltham, MA, USA).
as §3
Before addition to the assay plate, 3-fold concentrations of the His-ABL1 protein, Tb-SA and the biotinylated anti-His antibody were mixed in the assay buffer and incubated for over 1 h at room temperature. Several concentrations of test inhibitors dissolved in the assay buffer were dispensed in the assay plate. […] The plate was incubated for 30 min at room temperature and the TR-FRET signal was measured using the EnVision Multilabel Plate Reader.

Row | BCR-ABL % of control (BCR-ABL protein; time after washout 0 h) | BCR-ABL % of control (BCR-ABL protein; time after washout 48 h) | BCR-ABL % of control (BCR-ABL protein; time after washout 72 h) | IC50 (cIAP2 (BIR3)) | IC50 (Jurkat cells) | IC50 (ABL1) | Compound | caspase 3 activation and PARP cleavage [1]
1 | 32 % of control | 2 % of control | 2 % of control | 12 nM | 2870 ± 293 nM | 0.54 nM | CN[C@@H](C)C(=O)N[C@H](C(=O)N1CCC[C@H]1c1nc(C(=O)c2cccc(OCCOCCOCCOCC(=O)N3CCN(c4cc(Nc5ncc(C(=O)Nc6c(C)cccc6Cl)s5)nc(C)n4)CC3)c2)cs1)C1CCCCC1 [DAS-IAP] | induced
2 | 84 % of control | 80 % of control | 73 % of control | > 1000 nM | 2440 ± 310 nM | < 0.24 nM | CN[C@@H](C)C(=O)N(C)[C@H](C(=O)N1CCC[C@H]1c1nc(C(=O)c2cccc(OCCOCCOCCOCC(=O)N3CCN(c4cc(Nc5ncc(C(=O)Nc6c(C)cccc6Cl)s5)nc(C)n4)CC3)c2)cs1)C1CCCCC1 [DAS-meIAP] | not
